Assay results from PMC9655717, “New Molecules of Diterpene Origin with Inhibitory Properties toward α-Glucosidase” (International Journal of Molecular Sciences, 2022).

Tests used:
[1] = DPPH radical scavenging assay; conditions: DPPH 0.1 mM in methanol, 25°C, 30 min
Experimental: DPPH radical scavenging assay as described by Ha. The hydrogen atom donating ability of the plant extractives was determined by the decolorization of methanol solution of 2,2-diphenyl-1-picrylhydrazyl (DPPH). DPPH produces purple color in methanol solution and fades to shades of yellow color in the presence of antioxidants. […]
DPPH (0.1 mM) was diluted in methanol. 200 μL of this solution was added to 1.3 μL of various concentrations of compounds in DMSO (256.0, 64.0, 16.0, and 4.0 μg/mL). The mixture was performed by a 96-well plate at 25 °C in 30 min. Then, absorbance was determined by Epoch™ Microplate Spectrophotometer (at 517 nm). The percentage of DPPH quenching activity was computed by the following formula:
Inhibitory percentage SC (%) = [(Ao - A1)/Ao] × 100. where AO was defined as the absorbance of control reaction, and A1 represented for the absorbance in the presence of test or standard sample. Each experiment was repeated three times. Quercetin was used as a reference compound. […]

[2] = test system: Bacillus subtilis (ATCC 6633); assay: Antimicrobial broth microdilution; type: cell-based; conditions: ATCC6633, B. subtilis
Experimental: (§1) Table S2. The result of antimicrobial tests of compounds 38, 45, 48 and 50.
(§2) Gram (+) strains Gram (-) strains Fungi
(§3) Compound Values (µg/ml) S. aureus B. L. S. E. P. C. subtilis fermentum enterica coli aeruginosa albican
(§4) The antimicrobial activity was determined by broth microdilution method as reported by. Broth dilution testing is one of the common methods used for determination of the MICs and IC50. The compounds are examined for visible bacterial growth as evidenced by turbidity. […]
(§5) S1.5. In vitro antimicrobial activity study of compounds 38, 45, 48 and 50 The Gram-positive bacteria: Bacillus subtilis (ATCC 6633), Lactobacillus fermentum (N4), Staphylococcus aureus (ATCC 13709); Gram -negative bacteria: Escherichia coli (ATCC 25922), Pseudomonas aeruginosa (ATCC 15442), Salmonella enterica; Yeast: Candida albicans (ATCC 10231) were obtained from American Type Culture Collection. The bacterial […]
(§6) Sabourand 2% dextrose broth, were purchased from Merck. […]
(§7) remaining at –80 0 C. Before assay, they were activated by culture medium and, adjusted the concentration to 5x10^5 CFU/mL. 10 μL of each concentration of each test […]
(§8) further incubated at 37 °C within 16-24h. The experiment was triplicated. Positive […]
(§9) medium without bacteria as a negative control. Ampicillin was used as a reference […]
(§10) inhibiting 50% the visible growth of the tested microorganisms. MIC, IC50 values are typically expressed as molar concentration. […]
(§11) treated with sample different concentrations on 96-well plates. Untreated cells represented the controls. […]
(§12) crystals are visible. Remove MTT and add DMSO solution (100 μL). The optical density […]
(§13) are evaluated to have cytotoxic activity.

[3] = test system: Candida albicans (ATCC 10231); assay: Antimicrobial broth microdilution; type: cell-based; conditions: ATCC10231, C. albican
Experimental: as §1, §2, §3, §4, §5, §6, §7, §8, §9, §10, §11, §12, §13

[4] = test system: Escherichia coli (ATCC 25922); assay: Antimicrobial broth microdilution; type: cell-based; conditions: ATCC25922, E. coli
Experimental: as §1, §2, §3, §4, §5, §6, §7, §8, §9, §10, §11, §12, §13

[5] = test system: Lactobacillus fermentum (N4); assay: Antimicrobial broth microdilution; type: cell-based; conditions: L. fermentum
Experimental: as §1, §2, §3, §4, §5, §6, §7, §8, §9, §10, §11, §12, §13

[6] = test system: Pseudomonas aeruginosa (ATCC 15442); assay: Antimicrobial broth microdilution; type: cell-based; conditions: ATCC15442, P. aeruginosa
Experimental: as §1, §2, §3, §4, §5, §6, §7, §8, §9, §10, §11, §12, §13

[7] = test system: Salmonella enterica; assay: Antimicrobial broth microdilution; type: cell-based; conditions: S. enterica
Experimental: as §1, §2, §3, §4, §5, §6, §7, §8, §9, §10, §11, §12, §13

[8] = test system: Staphylococcus aureus (ATCC 13709); assay: Antimicrobial broth microdilution; type: cell-based; conditions: ATCC13709, S. aureus
Experimental: as §1, §2, §3, §4, §5, §6, §7, §8, §9, §10, §11, §12, §13

C#CCOC(=O)C1(C)CCCC2(C)C1CCC13C=C(C(C)C)C(CC12)c1c(O)cc2c(C(=O)OC)c(C)[nH]c2c13 (stereo not drawn) [Compound 45, Methyl 7-propynyl 1-hydroxy-13-isopropyl-7,10a,2′-trimethyl-5,6,6b,7,8,9,10,10a,10b,11,12,13-dodecahydro-12,4b-ethenophenanthro [2,1-g]indole-7,1′-dicarboxylate]
> 256 µg/mL: IC50 values, antioxidant test (DPPH) [1] | IC50 [2] | MIC [2] | IC50 [3] | MIC [3] | IC50 [4] | MIC [4] | IC50 [5] | MIC [5] | IC50 [6] | MIC [6] | IC50 [7] | MIC [7] | IC50 [8] | MIC [8]
